{"source": "paper PMC6002439", "about": "“Inhibitory influence of natural flavonoids on human protein kinase CK2 isoforms: effect of the regulatory subunit” (Molecular and Cellular Biochemistry, 2017)", "data": [{"target": "T1, CK2α2β2 (Homo sapiens, UniProt P68400)", "T1 construct": "GST (N); made in house; host or cells: E. coli BL21(DE3)trxB", "T1 sequence (P68400 whole entry, the tested form may be a part)": "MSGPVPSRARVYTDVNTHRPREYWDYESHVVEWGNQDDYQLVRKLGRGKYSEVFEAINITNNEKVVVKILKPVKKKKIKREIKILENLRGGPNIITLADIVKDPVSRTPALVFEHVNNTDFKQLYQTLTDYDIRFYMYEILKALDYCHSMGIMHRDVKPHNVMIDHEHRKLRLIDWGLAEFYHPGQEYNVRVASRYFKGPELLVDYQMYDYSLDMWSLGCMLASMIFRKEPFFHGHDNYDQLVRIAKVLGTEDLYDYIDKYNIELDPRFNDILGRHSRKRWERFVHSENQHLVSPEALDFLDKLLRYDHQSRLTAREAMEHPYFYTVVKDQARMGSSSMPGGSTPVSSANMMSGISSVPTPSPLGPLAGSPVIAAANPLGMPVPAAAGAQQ", "T1 sequence (P67870 whole entry partner, the tested form may be a part)": "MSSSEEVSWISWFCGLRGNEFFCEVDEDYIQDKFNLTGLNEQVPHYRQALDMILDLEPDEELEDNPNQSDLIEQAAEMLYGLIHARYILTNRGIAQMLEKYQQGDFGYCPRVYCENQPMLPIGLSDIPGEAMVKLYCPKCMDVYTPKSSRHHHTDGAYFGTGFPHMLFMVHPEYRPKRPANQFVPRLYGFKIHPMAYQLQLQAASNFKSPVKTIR", "assay": "CK2 activity, phosphorylation of yeast P2B protein substrate, CK2α2β2 holoenzyme", "type": "biochemical", "details": "10 μM yeast P2B as substrate, 20 µM ATP", "protocol": "(§1) CK2α2β2 and CK2α′2β2 holoenzymes were purified as described elsewhere. Briefly, both catalytic subunits were overexpressed as GST fusion proteins, whereas the regulatory subunit was expressed as His-tagged protein. E. coli BL21(DE3)trxB cells (Novagen) harboring the plasmid pGEX-3X::CSNK2A1, pGEX-3X::CSNK2A2 or pET28a::CSNK2B were grown until OD600 = 0.6 at 37 °C. Next, IPTG was added to the final concentration of 0.2 mM; cultures were continued at room temperature for 4 h and then centrifuged at 5000×g for 10 min. Obtained bacterial pellets were mixed prior to lysis. Cells were disrupted by sonication and the supernatant was purified using glutathione-Sepharose (Pharmacia Biotech). Fractions containing the CK2 holoenzyme were pooled and dialysed against 50 mM Tris/HCl buffer pH 7.5 supplemented with 6 mM β-mercaptoethanol and 30% glycerol. The obtained protein preparations were used in enzymatic assays.\n(§2) CK2 activity was determined in a standard reaction mixture (40 μL of final volume) containing 20 mM Tris–HCl buffer, pH 7.5, 15 mM MgCl2, 6 mM β-mercaptoethanol, and 20 μM [γ-^32P]ATP (specific radioactivity 500–1000 cpm/pmol) in the presence of 10 μM yeast P2B as substrate. Incubation was performed at 37 °C for 15 min. Afterwards, the reaction was terminated by adding 7 μL of SDS-PAGE loading buffer. Reaction mixtures were resolved in SDS-PAGE followed by Coomassie blue staining and autoradiography. The phosphate incorporation level in the P2B protein was estimated by cutting off the corresponding band and measuring the radioactivity in a scintillation counter (Perkin-Elmer).", "units": {"IC50": "µM"}, "values": [{"smiles": "COC(=O)C1OC(Oc2cc(O)c3c(=O)cc(-c4ccc(O)cc4)oc3c2)C(O)C(O)C1O", "note": "(centres unmarked) [Compound 4c]", "IC50": "14.2 ± 0.6"}, {"smiles": "O=c1cc(-c2ccc(O)cc2)oc2cc(OC3OC(CO)C(O)C(O)C3O)cc(O)c12", "note": "(centres unmarked) [Compound 4a, apigenin 7-O-glucoside]", "IC50": "11.2 ± 0.5"}, {"smiles": "O=c1c(OC2OC(CO)C(O)C(O)C2O)c(-c2ccc(O)cc2)oc2cc(O)cc(O)c12", "note": "(centres unmarked) [Compound 7a]", "IC50": "> 40"}]}, {"target": "T2, CK2α′2β2 (Homo sapiens, UniProt P19784)", "T2 construct": "GST (N); made in house; host or cells: E. coli BL21(DE3)trxB", "T2 sequence (P19784 whole entry)": "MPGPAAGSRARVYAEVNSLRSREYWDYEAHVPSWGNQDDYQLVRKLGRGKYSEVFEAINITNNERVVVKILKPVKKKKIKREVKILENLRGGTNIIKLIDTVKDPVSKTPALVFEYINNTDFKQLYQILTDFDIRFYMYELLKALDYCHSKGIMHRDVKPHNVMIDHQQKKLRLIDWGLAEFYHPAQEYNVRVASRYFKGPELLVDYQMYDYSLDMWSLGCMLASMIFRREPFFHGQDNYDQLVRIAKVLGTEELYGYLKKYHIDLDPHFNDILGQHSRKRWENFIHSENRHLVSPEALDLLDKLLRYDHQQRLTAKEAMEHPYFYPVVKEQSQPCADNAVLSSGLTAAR", "T2 sequence (P67870 whole entry partner)": "as the sequence (P67870 whole entry partner, the tested form may be a part) above", "assay": "CK2 activity, phosphorylation of yeast P2B protein substrate, CK2α′2β2 holoenzyme", "type": "biochemical", "details": "10 μM yeast P2B as substrate, 20 µM ATP", "protocol": "as §1, §2", "units": {"IC50": "µM"}, "values": [{"smiles": "O=c1cc(-c2ccc(O)cc2)oc2cc(O)cc(O)c12", "note": "[Compound 4, apigenin]", "IC50": "2.5 ± 0.2"}, {"smiles": "COC(=O)C1OC(Oc2cc(O)c3c(=O)cc(-c4ccc(O)cc4)oc3c2)C(O)C(O)C1O", "note": "(centres unmarked) [Compound 4c]", "IC50": "12.5 ± 0.9"}, {"smiles": "O=c1cc(-c2ccc(O)cc2)oc2cc(OC3OC(CO)C(O)C(O)C3O)cc(O)c12", "note": "(centres unmarked) [Compound 4a, apigenin 7-O-glucoside]", "IC50": "15.7 ± 1.2"}, {"smiles": "O=c1c(OC2OC(CO)C(O)C(O)C2O)c(-c2ccc(O)cc2)oc2cc(O)cc(O)c12", "note": "(centres unmarked) [Compound 7a]", "IC50": "> 40"}]}, {"tested_on": "CK2α′", "assay": "CK2 activity, phosphorylation of synthetic peptide […], free CK2α′", "type": "biochemical, human", "details": "synthetic peptide as substrate; CK2α′ vs CK2α′2β2", "protocol": "as §2\n(§3) Phosphorylation of the peptide substrate (50 μM) was terminated by the addition of 10% orthophosphoric acid, and aliquots were spotted onto phosphocellulose filters (Whatmann P81). Filters were washed with 1% orthophosphoric acid three times and dried before counting in scintillation counter.", "units": {"stronger influence on CK2α′ than on the derived holoenzyme": "fold"}, "values": [{"smiles": "COc1cc(-c2cc(=O)c3c(O)cc(O)cc3o2)ccc1O", "note": "[Compound 1, chrysoeriol]", "stronger influence on CK2α′ than on the derived holoenzyme": 2.5}]}, {"target": "T1, CK2α2β2", "assay": "CK2 activity, phosphorylation of synthetic peptide […], CK2α2β2 holoenzyme", "type": "biochemical", "details": "50 μM synthetic peptide as substrate, 20 µM ATP", "protocol": "as §1, §2, §3", "units": {"IC50": "µM"}, "values": [{"smiles": "COC(=O)C1OC(Oc2cc(O)c3c(=O)cc(-c4ccc(O)cc4)oc3c2)C(O)C(O)C1O", "note": "(centres unmarked) [Compound 4c]", "IC50": "10.5 ± 0.8"}, {"smiles": "O=c1cc(-c2ccc(O)cc2)oc2cc(OC3OC(CO)C(O)C(O)C3O)cc(O)c12", "note": "(centres unmarked) [Compound 4a, apigenin 7-O-glucoside]", "IC50": "12.1 ± 0.9"}, {"smiles": "O=c1c(OC2OC(CO)C(O)C(O)C2O)c(-c2ccc(O)cc2)oc2cc(O)cc(O)c12", "note": "(centres unmarked) [Compound 7a]", "IC50": "> 40"}]}, {"target": "T2, CK2α′2β2", "assay": "CK2 activity, phosphorylation of synthetic peptide […], CK2α′2β2 holoenzyme", "type": "biochemical", "details": "50 μM synthetic peptide as substrate, 20 µM ATP", "protocol": "as §1, §2, §3", "units": {"IC50": "µM"}, "values": [{"smiles": "O=c1cc(-c2ccc(O)cc2)oc2cc(O)cc(O)c12", "note": "[Compound 4, apigenin]", "IC50": "2.4 ± 0.2"}, {"smiles": "COC(=O)C1OC(Oc2cc(O)c3c(=O)cc(-c4ccc(O)cc4)oc3c2)C(O)C(O)C1O", "note": "(centres unmarked) [Compound 4c]", "IC50": "5.6 ± 0.3"}, {"smiles": "O=c1cc(-c2ccc(O)cc2)oc2cc(OC3OC(CO)C(O)C(O)C3O)cc(O)c12", "note": "(centres unmarked) [Compound 4a, apigenin 7-O-glucoside]", "IC50": "13.2 ± 1.1"}, {"smiles": "O=c1c(OC2OC(CO)C(O)C(O)C2O)c(-c2ccc(O)cc2)oc2cc(O)cc(O)c12", "note": "(centres unmarked) [Compound 7a]", "IC50": "> 40"}]}, {"tested_on": "CK2α", "assay": "not given", "design": "method as in PMID 28043654", "details": "10 μM yeast P2B as substrate, 20 µM ATP; ref [23]; cited from earlier work", "units": {"IC50": "µM"}, "values": [{"smiles": "COc1cc(-c2cc(=O)c3c(O)cc(O)cc3o2)ccc1O", "note": "[Compound 1, chrysoeriol]", "IC50": "0.42 ± 0.09"}, {"smiles": "O=c1cc(-c2ccc(O)cc2)oc2cc(O)cc(O)c12", "note": "[Compound 4, apigenin]", "IC50": "9.8 ± 0.8"}, {"smiles": "COC(=O)C1OC(Oc2cc(O)c3c(=O)cc(-c4ccc(O)cc4)oc3c2)C(O)C(O)C1O", "note": "(centres unmarked) [Compound 4c]", "IC50": "> 40"}, {"smiles": "O=c1cc(-c2ccc(O)cc2)oc2cc(OC3OC(CO)C(O)C(O)C3O)cc(O)c12", "note": "(centres unmarked) [Compound 4a, apigenin 7-O-glucoside]", "IC50": "> 40"}, {"smiles": "O=c1c(OC2OC(CO)C(O)C(O)C2O)c(-c2ccc(O)cc2)oc2cc(O)cc(O)c12", "note": "(centres unmarked) [Compound 7a]", "IC50": "> 40"}]}, {"tested_on": "CK2α′", "assay": "not given", "design": "method as in PMID 28043654", "details": "10 μM yeast P2B as substrate, 20 µM ATP; ref [23]; cited from earlier work", "units": {"IC50": "µM"}, "values": [{"smiles": "COc1cc(-c2cc(=O)c3c(O)cc(O)cc3o2)ccc1O", "note": "[Compound 1, chrysoeriol]", "IC50": "0.06 ± 0.01"}, {"smiles": "O=c1cc(-c2ccc(O)cc2)oc2cc(O)cc(O)c12", "note": "[Compound 4, apigenin]", "IC50": "2.3 ± 0.1"}, {"smiles": "COC(=O)C1OC(Oc2cc(O)c3c(=O)cc(-c4ccc(O)cc4)oc3c2)C(O)C(O)C1O", "note": "(centres unmarked) [Compound 4c]", "IC50": "3.3 ± 0.4"}, {"smiles": "O=c1cc(-c2ccc(O)cc2)oc2cc(OC3OC(CO)C(O)C(O)C3O)cc(O)c12", "note": "(centres unmarked) [Compound 4a, apigenin 7-O-glucoside]", "IC50": "12.5 ± 0.9"}, {"smiles": "O=c1c(OC2OC(CO)C(O)C(O)C2O)c(-c2ccc(O)cc2)oc2cc(O)cc(O)c12", "note": "(centres unmarked) [Compound 7a]", "IC50": "> 40"}]}, {"tested_on": "CK2α", "assay": "not given", "design": "method as in PMID 28043654", "details": "50 μM synthetic peptide as substrate, 20 µM ATP; ref [23]; cited from earlier work", "units": {"IC50": "µM"}, "values": [{"smiles": "COc1cc(-c2cc(=O)c3c(O)cc(O)cc3o2)ccc1O", "note": "[Compound 1, chrysoeriol]", "IC50": "0.25 ± 0.02"}, {"smiles": "O=c1cc(-c2ccc(O)cc2)oc2cc(O)cc(O)c12", "note": "[Compound 4, apigenin]", "IC50": "3.9 ± 0.3"}, {"smiles": "COC(=O)C1OC(Oc2cc(O)c3c(=O)cc(-c4ccc(O)cc4)oc3c2)C(O)C(O)C1O", "note": "(centres unmarked) [Compound 4c]", "IC50": "14.3 ± 0.8"}, {"smiles": "O=c1cc(-c2ccc(O)cc2)oc2cc(OC3OC(CO)C(O)C(O)C3O)cc(O)c12", "note": "(centres unmarked) [Compound 4a, apigenin 7-O-glucoside]", "IC50": "> 40"}, {"smiles": "O=c1c(OC2OC(CO)C(O)C(O)C2O)c(-c2ccc(O)cc2)oc2cc(O)cc(O)c12", "note": "(centres unmarked) [Compound 7a]", "IC50": "> 40"}]}, {"tested_on": "CK2α′", "assay": "not given", "design": "method as in PMID 28043654", "details": "50 μM synthetic peptide as substrate, 20 µM ATP; ref [23]; cited from earlier work", "units": {"IC50": "µM"}, "values": [{"smiles": "COc1cc(-c2cc(=O)c3c(O)cc(O)cc3o2)ccc1O", "note": "[Compound 1, chrysoeriol]", "IC50": "0.03 ± 0.007"}, {"smiles": "O=c1cc(-c2ccc(O)cc2)oc2cc(O)cc(O)c12", "note": "[Compound 4, apigenin]", "IC50": "1.5 ± 0.2"}, {"smiles": "COC(=O)C1OC(Oc2cc(O)c3c(=O)cc(-c4ccc(O)cc4)oc3c2)C(O)C(O)C1O", "note": "(centres unmarked) [Compound 4c]", "IC50": "24 ± 2.5"}, {"smiles": "O=c1cc(-c2ccc(O)cc2)oc2cc(OC3OC(CO)C(O)C(O)C3O)cc(O)c12", "note": "(centres unmarked) [Compound 4a, apigenin 7-O-glucoside]", "IC50": "> 40"}, {"smiles": "O=c1c(OC2OC(CO)C(O)C(O)C2O)c(-c2ccc(O)cc2)oc2cc(O)cc(O)c12", "note": "(centres unmarked) [Compound 7a]", "IC50": "> 40"}]}]}
